# In patent US6326372A, “Lactam and cyclic urea derivatives useful as alpha 1a adrenoceptor antagonists” (Merck & Co., Inc., priority 2000, dated 2001):
# Structures can show the parent of a compound that is named as a salt.
# Test system: alpha 1a receptors versus alpha 1b and alpha 1d receptors
# Assay: Selective Binding Assays: binding to alpha 1a versus alpha 1b and alpha 1d receptors ([125I]-HEAT competition binding)
# Parameters: species or system human
# Details: alpha 1a versus both alpha 1b and alpha 1d; at least about
# Protocol: Membranes prepared from the stably transfected human alpha 1a cell line (ATCC CRL 11140) were used to identify compounds that bind to the human alpha 1a adrenergic receptor. These competition binding reactions (total volume=200 μl) contained 50 mM Tris-HCl pH. 7.4, 5 mM EDTA, 150 mM NaCl, 100 pM [^125 I]-HEAT, membranes prepared from the alpha 1a cell line and increasing amounts of unlabeled ligand. Reactions were incubated at room temperature for one hour with shaking. Reactions were filtered onto Whatman GF/C glass fiber filters with a Inotec 96 well cell harvester. Filters were washed three times with ice cold buffer and bound radioactivity was determined (Ki).
# Membranes prepared from stably transfected human alpha 1d and alpha 1b cell lines (ATCC CRL 11138 and CRL 11139, respectively) were used to identify compounds that selectively bind to the human alpha 1a adrenergic receptor. These competition binding reactions (total volume=200 μl) contained 50 mM Tris-HCl pH. 7.4, 5 mM EDTA, 150 mM NaCl, 100 pM [^125 I]-HEAT, membranes prepared from cell lines transfected with the respective alpha 1 subtype expression plasmid and increasing amounts of unlabeled ligand. Reactions were incubated at room temperature for one hour with shaking. Reactions were filtered onto Whatman GF/C glass fiber filters with a Inotec 96 well cell harvester. Filters were washed three times with ice cold buffer and bound radioactivity was determined (Ki).
row,SMILES,fold more selective in binding to alpha 1a receptors versus binding to the alpha 1b and alpha 1d receptors
1,"C[C@H](c1ccccc1)N1CCC(c2ccc(F)c(F)c2)N(C(=O)NCCCN2CCC(c3ccccc3C#N)CC2)C1=O (stereo partly drawn) [Example 15 (Table 1, entry 2), 4-(3,4-difluorophenyl)-1-((R)-α-methylbenzyl)-3-[(4'-(2-cyanophenyl)piperidin-1'-yl)propyl]aminocarbonyltetrahydro-pyrimidin-2-one]",at least 10 fold
2,"C[C@H](c1ccccc1)N1CCC(c2ccc(F)c(F)c2)N(C(=O)NCCCN2CCC(c3ccccn3)CC2)C1=O (stereo partly drawn) [Example 15 (Table 1, entry 1), 4-(3,4-difluorophenyl)-1-((R)-α-methylbenzyl)-3-[(4'-(2-pyridyl)piperidin-1'-yl)propyl]aminocarbonyltetrahydropyrimidin-2-one]",at least 10 fold
3,"O=C1CCCC(c2ccc(F)c(F)c2)N1C(=O)N[C@@H]1CCN([C@H]2CC[C@H](c3ccccn3)CC2)C1 (single isomer, unassigned) [Example 10 (Enantiomer A), Dihydrochloride]",at least 10 fold
4,"CC1CC(=O)N(C(=O)NCCCN2CCC(c3ccc(F)cc3)CC2)C(c2ccc(F)c(F)c2)C1 (single isomer, unassigned) [Example 3 (Isomer C), Hydrochloride]",at least 10 fold
5,"O=C1CCCC(c2ccc(F)c(F)c2)N1C(=O)NCCCN1CCC(c2ccccn2)CC1 (single isomer, unassigned) [Example 8, Dihydrochloride]",at least 10 fold
6,"COc1cc(F)ccc1[C@H]1CC[C@H](N2CC[C@@H](NC(=O)N3C(=O)N([C@H](C)c4ccccc4)CCC3c3ccc(F)c(F)c3)C2)CC1 (stereo partly drawn) [Example 15 (Table 1, entry 5), 3-[[3(R)-1-[trans-4-(2-methoxy-4-fluorophenyl)cyclohexyl]pyrrolidin-3-yl]-aminocarbonyl]-1-((R)-α-methylbenzyl)-4-(3,4-difluorophenyl)pyrimidin-2-one]",at least 10 fold
